Assay results as given in PubChem BioAssay AID1259407 (Chemical Carcinogenesis Research Information System (CCRIS), 2018).
The source made the active and inactive calls. No rule for the calls is given here.

Test system: CCRIS mutagenicity, Ames/micronucleus/aberration tests
Test: CCRIS mutagenicity studies
[1] = Test System: AMES SALMONELLA TYPHIMURIUM, Strain/Indicator: TA1535, Metabolic Activation: NONE, Method: PREINCUBATION
[2] = Test System: AMES SALMONELLA TYPHIMURIUM, Strain/Indicator: TA98, Metabolic Activation: NONE, Method: STANDARD PLATE

Measured: mutagenic call

CC(C)Oc1ccc(Nc2ccccc2)cc1
inactive: End Point: IN VITRO CHROMOSOMAL ABERRATIONS, Test System: CHINESE HAMSTER LUNG CELLS (CHL), Metabolic Activation: RAT, LIVER, S-9, KC-400 inactive; negative; authors describe results as inconclusive | End Point: IN VITRO CHROMOSOMAL ABERRATIONS, Test System: CHINESE HAMSTER OVARY CELLS (CHO), Metabolic Activation: NONE inactive; negative | End Point: IN VITRO CHROMOSOMAL ABERRATIONS, Test System: CHINESE HAMSTER OVARY CELLS (CHO), Metabolic Activation: RAT, LIVER, S-9, AROCLOR 1254 inactive; negative | End Point: IN VITRO CHROMOSOMAL ABERRATIONS, Test System: CHO-LB CELLS, Metabolic Activation: NONE inactive; negative | End Point: IN VITRO CHROMOSOMAL ABERRATIONS, Test System: CHO-LB CELLS, Metabolic Activation: RAT, LIVER, S-9, AROCLOR 1254 inactive; negative | Test System: AMES SALMONELLA TYPHIMURIUM, Strain/Indicator: TA97, Metabolic Activation: HAMSTER, LIVER, S-9, AROCLOR 1254 (10 OR 30%), Method: PREINCUBATION inactive; negative | Test System: AMES SALMONELLA TYPHIMURIUM, Strain/Indicator: TA97, Metabolic Activation: NONE, Method: PREINCUBATION inactive; negative | Test System: AMES SALMONELLA TYPHIMURIUM, Strain/Indicator: TA97, Metabolic Activation: RAT, LIVER, S-9, AROCLOR 1254 (10 OR 30%), Method: PREINCUBATION inactive; negative | Test System: AMES SALMONELLA TYPHIMURIUM, Strain/Indicator: TA98, Metabolic Activation: HAMSTER, LIVER, S-9, AROCLOR 1254 (10 OR 30%), Method: PREINCUBATION inactive; negative | Test System: AMES SALMONELLA TYPHIMURIUM, Strain/Indicator: TA98, Metabolic Activation: NONE, Method: PREINCUBATION inactive; negative | Test System: AMES SALMONELLA TYPHIMURIUM, Strain/Indicator: TA98, Metabolic Activation: RAT, LIVER, S-9, AROCLOR 1254 (10 OR 30%), Method: PREINCUBATION inactive; negative | Test System: AMES SALMONELLA TYPHIMURIUM, Strain/Indicator: TA100, Metabolic Activation: HAMSTER, LIVER, S-9, AROCLOR 1254 (10 OR 30%), Method: PREINCUBATION inactive; negative | Test System: AMES SALMONELLA TYPHIMURIUM, Strain/Indicator: TA100, Metabolic Activation: NONE, Method: PREINCUBATION inactive; negative | Test System: AMES SALMONELLA TYPHIMURIUM, Strain/Indicator: TA100, Metabolic Activation: RAT, LIVER, S-9, AROCLOR 1254 (10 OR 30%), Method: PREINCUBATION inactive; negative | Test System: AMES SALMONELLA TYPHIMURIUM, Strain/Indicator: TA1535, Metabolic Activation: HAMSTER, LIVER, S-9, AROCLOR 1254 (10 OR 30%), Method: PREINCUBATION inactive; negative | [1] inactive; negative | Test System: AMES SALMONELLA TYPHIMURIUM, Strain/Indicator: TA1535, Metabolic Activation: RAT, LIVER, S-9, AROCLOR 1254 (10 OR 30%), Method: PREINCUBATION inactive; negative

CCN=[N+](C)[O-]
inactive: Test System: AMES SALMONELLA TYPHIMURIUM, Strain/Indicator: TA1535, Metabolic Activation: HAMSTER, LIVER, S-9, AROCLOR 1254, Method: PREINCUBATION inactive; negative | [1] inactive; negative | Test System: AMES SALMONELLA TYPHIMURIUM, Strain/Indicator: TA1535, Metabolic Activation: RAT, LIVER, S-9, AROCLOR 1254, Method: PREINCUBATION inactive; negative

[Zn]
inactive: [2] inactive; negative | Test System: AMES SALMONELLA TYPHIMURIUM, Strain/Indicator: TA98, Metabolic Activation: RAT, LIVER, S-9, PHENOBARBITAL, Method: STANDARD PLATE inactive; negative | Test System: AMES SALMONELLA TYPHIMURIUM, Strain/Indicator: TA102, Metabolic Activation: NONE, Method: STANDARD PLATE inactive; negative | Test System: AMES SALMONELLA TYPHIMURIUM, Strain/Indicator: TA102, Metabolic Activation: RAT, LIVER, S-9, PHENOBARBITAL, Method: STANDARD PLATE inactive; negative | Test System: AMES SALMONELLA TYPHIMURIUM, Strain/Indicator: TA1535, Metabolic Activation: NONE, Method: STANDARD PLATE inactive; negative | Test System: AMES SALMONELLA TYPHIMURIUM, Strain/Indicator: TA1535, Metabolic Activation: RAT, LIVER, S-9, PHENOBARBITAL, Method: STANDARD PLATE inactive; negative | Test System: AMES SALMONELLA TYPHIMURIUM, Strain/Indicator: TA1537, Metabolic Activation: NONE, Method: STANDARD PLATE inactive; negative | Test System: AMES SALMONELLA TYPHIMURIUM, Strain/Indicator: TA1537, Metabolic Activation: RAT, LIVER, S-9, PHENOBARBITAL, Method: STANDARD PLATE inactive; negative | Test System: UDS HUMAN AMNION FL CELL LINE, Strain/Indicator: THY INCORP, Metabolic Activation: NONE, Method: LIQUID SCINTILLATION COUNTING inactive; negative

Cc1cc(Cc2cc(C)cc(C(C)(C)C)c2O)c(O)c(C(C)(C)C)c1
inactive: [2] inactive; negative | Test System: AMES SALMONELLA TYPHIMURIUM, Strain/Indicator: TA98, Metabolic Activation: S-9, Method: STANDARD PLATE inactive; negative | Test System: AMES SALMONELLA TYPHIMURIUM, Strain/Indicator: TA100, Metabolic Activation: NONE, Method: STANDARD PLATE inactive; negative | Test System: AMES SALMONELLA TYPHIMURIUM, Strain/Indicator: TA100, Metabolic Activation: S-9, Method: STANDARD PLATE inactive; negative
